From article PMC4792557 (Oncotarget, 2015)

How the values were obtained:
Assay in all cases: cells
A549 = tested on: A549; design: species or system H23, H460, H358; CellTiter-Glo ATP viability of NSCLC cell lines; conditions: Homo sapiens, A549, 48 h, read-out: AZD6738 GI50 (uM)
Method: (§1) ATP levels were assessed as surrogate measure of viability was assessed using the CellTiter-Glo Luminescent Cell Viability Assay (Promega) and Safire^2 plate reader (Tecan). Raw data were corrected for background luminescence prior to further analysis. […] GI50 values, defined as the dose X at which Y = 50%, were extrapolated from dose response curves. For combination treatments, data were normalized to the mean of untreated controls. Loewe excess matrices were generated using Chalice Analyzer Online (Horizon CombinatoRx) and mean normalized inhibition values. […] Log dose response curves were generated in GraphPad Prism 6 by nonlinear regression (log(inhibitor) vs. normalized response with variable slope) of log-transformed (x = log(x)), normalized data. IC50 values were calculated by Prism 6.

H23 = tested on: H23; design: species or system H460, A549, H358; CellTiter-Glo ATP viability of NSCLC cell lines; conditions: Homo sapiens, NCI-H23, 48 h, read-out: AZD6738 GI50 (uM)
Method: as §1

H358 = tested on: H358; design: species or system H23, H460, A549; CellTiter-Glo ATP viability of NSCLC cell lines; conditions: Homo sapiens, NCI-H358, 48 h, read-out: AZD6738 GI50 (uM)
Method: as §1

H460 = tested on: H460; design: species or system H23, A549, H358; CellTiter-Glo ATP viability of NSCLC cell lines; conditions: Homo sapiens, NCI-H460, 48 h, read-out: AZD6738 GI50 (uM)
Method: as §1

GI50 (A549): 5.42 µM
GI50 (H358): 6.95 µM
GI50 (H460): 1.05 µM
SMILES: C[C@@H]1COCCN1c1cc(C2([S@](C)(=N)=O)CC2)nc(-c2cc[nH]c3nccc2-3)n1 [AZD6738]
GI50 (H23): 2.38 µM
